Consider three compounds from US20090325202A1, “Methods for Developing and Assessing Therapeutic Agents” (priority 2006, published 2009).

“And” between values parts separate entries of the source, which are not always exact repeats. Equal entries are not always repeated. “Also recorded” adds a separate entry of the source.

For test [1], the system named is HuCCT-1 tumors. Briefly: HuCCT-1 xenograft tumor growth. To be noted: single agents: gefitinib 150 mg/Kg i.p. days 1-5 and 8-12, CI-1040 150 mg/Kg twice a day oral days 1-14. The class given is in vivo, athymic (nu+/nu+) mice. As to the method:
(§1) Four to 6-week-old female athymic (nu+/nu+) mice were purchased from Harlan (Harlan Laboratories, Washington, D.C.). The research protocol was approved by the Johns Hopkins University Animal Care Committee and animals were maintained in accordance with the guidelines of the American Association of Laboratory Animal Care. […] Mice were monitored daily for signs of toxicity and were weighed three times per week. Tumor size was evaluated three times per week by caliper measurements using the following formula: tumor volume=[length×width^2]/2. Tumor growth inhibition was calculated by tumor volume of treated mice divided by tumor volume of control mice. Experiments were terminated on day 14.
To explore the feasibility of implementing this method in in vivo studies, mouse xenografts were next employed to test whether FNAB material obtained from tumor tissue can be utilized to monitor and predict therapy response in vivo. For this purpose HuCCT-1 cholangiocarcinoma cells were used to create a xenograft mouse model of human cholangiocarcinoma. […] Tumor volumes were measured and compared with tumors from animals that received drug vehicle alone.

Test [2] relates to ERK1/2. The experiment in a line: HuCCT-1 xenograft tumor FNAB Western blot, ERK1/2 activity. The class given is in vivo, human. As to the method: as §1
Fine needle aspirates were obtained with a 25G needle and 10 ml syringe, passing the needle through the tumor 10 times with application of 1-2 ml suction The aspirated material was expressed onto clear glass slides and smeared. All smears were allowed to air dry and then stained with Diff-Quik stain (Baxter Healthcare, Miami, Fla.). Five to ten AD/DQ-stained cytological smears were prepared from each tumor sample. The cellular composition of each aspirate was assessed by cytopathologists.
(§2) Total cell lysates were obtained from either cells cultured in vitro or from tumor FNAB samples. […] Immunoreactive proteins were visualized by enhanced chemiluminescence (Amersham International, United Kingdom). Total and phospho-ERK1/2 proteins were quantified by sandwich [LISA kits (BioSource International, Camarillo, Calif., USA) as described in the manufacturer's protocols. The reaction was read at 450 nm in an ELISA plate reader.
Next, whether FNAB samples obtained from tumor tissue at the early stage of therapy can be used to predict tumor response was examined. […] Expression and phosphorylation levels of ERK 1/2 were analyzed on Western blot by using extracts prepared from AD/DQ-stained FNAB samples.
In general terms: In xenograft studies the graft and the host belong to different species.

In test [3] the test system is ERK1/2. The experiment in a line: HuCCT-1 xenograft tumor FNAB phospho-/total ERK1/2 ELISA. The class given is in vivo, human. As to the method:
as §1, §2
Western blot analysis of protein samples is a conventional method for phosphoprotein analysis, but is limited in throughput, quantitative precision and requires large sample amounts. ELISA assays offer alternatives to Western blot with higher throughput and increased sensitivity. […] For this purpose the tumor FNAB samples, which have been analyzed on Western blot above (FIG. 16A), were used to assess the expression and phosphorylation of ERK1/2 proteins by the total and phospho-specific ERK1/2 ELISA assays, respectively.
The amounts of phosphorylated ERK1/2 were normalized for the total contents of these proteins in each sample group and therapy-mediated changes in their phosphorylation status were quantified.

For test [4], the system named is ERK1/2. Briefly: Phospho-/total ERK1/2 ELISA in EGF-stimulated T-47D cell smears. The class given is cell-based, human. Particulars: T-47D cells, AG1478 0.5 uM, PD98059 20 uM. Here is the method: T47D cells were maintained in Dulbecco's modified Eagle's medium (Life Technologies, Inc.) supplemented with 10% fetal calf serum and antibiotics (Life Technologies, Inc.). Prior to EGF (Sigma) stimulation, cells were starved for 24 h in serum-free medium.
Total cell lysates were obtained from either cells cultured in vitro or from tumor FNAB samples. Protein extracts were resolved by 4-15% SDS-PAGE and probed with Rabbit anti-EGFR, anti-phospbo-EGFR, anti-ERK1 and anti-phospho-ERK antibodies obtained from New England Biolabs (Beverly, Mass.). Immunoreactive proteins were visualized by enhanced chemiluminescence (Amersham International, United Kingdom). Total and phospho-ERK1/2 proteins were quantified by sandwich [LISA kits (BioSource International, Camarillo, Calif., USA) as described in the manufacturer's protocols. The reaction was read at 450 nm in an ELISA plate reader.
Western blot analysis of protein samples is a conventional method for phosphoprotein analysis. However, Western blot analysis is limited in throughput and quantitative precision, and also requires large sample amounts. […] Therefore, it was tested if quantitative ELISA assays can be applied to cytologic samples to increase the assay sensitivity to measure the expression levels and activation status of specific signaling pathways. […]
On the technique in general: ELISA stands for enzyme-linked immunosorbent assay.

Test [5] concerns primary human pancreatic cancer xenograft tumors. The experiment in a line: Tumor growth (RTG) in xenograft mouse models of primary human pancreatic cancer. The class given is in vivo, athymic (nu+/nu+) mice. From the text:
Four-week-old female athymic (nu+/nu+) mice were purchased from Harlan (Harlan Laboratories, Washington, D.C.). The research protocol was approved by the Johns Hopkins University Animal Care and Use Committee and animals were maintained in accordance to guidelines of the American Association of Laboratory Animal Care. Briefly, frozen pancreatic xenografts in first passage in mice, after being obtained from surgical specimens of patients undergoing pancreatic resection for adenocarcinoma at the Johns Hopkins Hospital were re-implanted subcutaneously in groups of 5 mice for each patient, with 2 small pieces per mouse (F2 generation). Tumors were allowed to grow to a size of 1.5 cm at which point they were harvested, divided into small ˜3×3×3 mm pieces, and transplanted to another 18-22 mice, with two tumors per mouse. Tumors from this second mouse-to-mouse passage were allowed to grow until reaching −200 mm^3, at which time mice were randomized in the following three treatment groups, with 6 mice in each group: control (vehicle), erlotinib (50 mg/kg/day i.p.), and temsirolimus (20 mg/kg days 1-5 i.p.). Mice were monitored daily for signs of toxicity and were weighed three times per week. Tumor size was evaluated three times per week by caliper measurements using the following formula: tumor volume=[length×width^2]/2 as previously reported (19). Relative tumor growth (RTG) was calculated by tumor growth of treated mice divided by tumor growth of control mice (T/C)×100. Experiments were terminated on day 28. Tumor response was defined as sensitive, when RTG was less than 50% on day 28.

The test system of test [6] is ERK1/2. Briefly: Ex vivo FNAB drug sensitivity assay, ERK1/2 phosphorylation by Western blot. The class given is cell-based, human. As to the method: Tumor cells were collected by FNAB from the xenograft animals before the start of treatment using a sterile 25G short needle. Tumor samples were immediately transferred into 10 ml sterile prewarmed complete RPMI-1640 culture medium containing 10% FBS, penicillin (200 μg/ml), and streptomycin (200 μg/ml). Cells were incubated with 0.04% trypan blue (Sigma) dissolved in PBS (9.1 mM Na2HPO4, 1.7 mM NaH2PO4, and 150 mM NaCl, pH 7.4). The viable (membrane-intact) and dead cells were then counted using Neubauer hemocytometer and the total viable cell count was used to calculate final working volumes. Approximately 25,000 viable tumor cells were seeded into each well of a 6-well polypropylene microplate. Cells were treated in duplicates with vehicle (control), erlotinib (5 μM) or temsirolimus (1 μM) in a humidified 5% CO2 incubator at 37° C. for 6 hours. No fibroblast and endothelial cell growth was observed. Following treatment, non-adherent and adherent cells (only a few, collected by scraping) were pooled together and centrifuged at 500×g for 5 min at 4° C. After washing with PBS, cells were lysed in 100 μL of ice-cold lysis buffer (50 mM Tris-HCl, 0.25M NaCl, 0.1% (v/v) Triton X-100, 1 mM EDTA, 50 mM NaF, and 0.1 mM Na3VO4, pH 7.4) containing protease and phosphatase inhibitors (Roche Molecular Biochemicals) and analyzed by Western blot.
Protein concentrations obtained from FNAB samples were quantified before each experiment. Protein extracts (15 μg) were electrophoresed on a 10% (w/v) SDS-polyacrylamide gel. After electrotransfer to Immobilon-P membranes (Millipore), membranes were blocked at room temperature using SuperBlock (Pierce) for one hour. The primary antibodies were diluted at 1:1000 in 1:10 dilution of SuperBlock solution and the membranes were incubated with primary antibodies overnight at 4° C. The antibodies tested were phospho-ERK1/2 (Cell signal #9101), phospho-S6 Ribosomal Protein (Cell Signaling Technology, Beverly, Mass.) and total ERK1/2 (Cell Signaling Technology, Beverly, Mass.) and total S6 Ribosomal Protein (Cell Signaling Technology, Beverly, Mass.). The next day, the membranes were washed and incubated for 1 h at room temperature with horseradish peroxidase (HRP)-conjugated secondary antibodies, rabbit IgG-HRP (Santa Cruz Biotechnology), or mouse IgG-HRP (Santa Cruz Biotechnology) at a final dilution of 1:3000. Antibody binding was visualized using enhanced chemiluminescence (SuperSignal West Pico, Pierce) and autoradiography.
To test if tumor cells obtained by FNAB can be used in the ex vivo assays to predict tumor response in vivo, 25,000 viable cancer cells, as determined by trypan blue dye exclusion, were treated with erlotinib or temsirolimus for six hours, after which signal pathway inhibition was analyzed by Western blot. Under these cell culture conditions no fibroblast and endothelial cell growth was detected (data not shown).
To determine whether standard clinical FNAB specimens provide adequately cellular tumor samples to perform ex vivo prediction assays, adenocarcinoma cells were collected by ultrasound or computer tomography-guided FNAB technique from pancreatic cancer patients during routine diagnostic procedures. Tumor cells were isolated by centrifugation from the needle rinse suspensions and treated with vehicle (control), erlotinib, or temsirolimus ex vivo for six hours.

As for `O=C(NOCC1CC1)c1ccc(F)c(F)c1Nc1ccc(I)cc1Cl` [CI-1040], the “decrease in tumor volume” value in test [1] was 11%. Further, in test [2] (HuCCT-1 tumor FNAB samples of treated mice, gefitinib, CI-1040 alone or combined), the “ERK1/2 activity (phospho-ERK1/2 immunoblot)” value is reported as “only a slight inhibition in ERK1/2 activity”. In test [2] (combination: as early as 6 h after first administration, sustained for two weeks, single agents: 6 h or 5 d), the “ERK1/2 activity, serial FNAB sampling” value is on record as “neither of these agents alone caused inhibition”. In test [3] (HuCCT-1 tumor FNAB samples of treated animals), the “phosphorylation levels of ERK1/2 by phospho-ERK1/2 ELISA (raw data)” value is “neither gefitinib nor CI-1040 treatment alone caused any significant change”. Also, the “decrease of ERK1/2 phosphorylation (normalized for total ERK1/2)” value in test [3] (HuCCT-1 tumor FNAB, CI-1040 alone) was found to be 19%.
`COc1cccc(-c2cc(=O)c3ccccc3o2)c1N` [PD98059]: in test [4], the “inhibition of EGF-induced ERK1/2 phosphorylation (phospho-ELISA normalized for total ERK1/2)” value is 50% and 60%.
Regarding `C#Cc1cccc(Nc2ncnc3cc(OCCOC)c(OCCOC)cc23)c1` [erlotinib], the RTG result in test [5] (remaining seven tumors (all but A198), erlotinib 50 mg/kg/day i.p., day 28) is recorded as “greater than 50%”. Moreover, the tumor response result is “sensitive (Tumor response was defined as sensitive, when RTG was less than 50% on day 28)” in test [5] (tumor A198); “resistant (greater than 50% RTG and were defined as resistant)” in test [5] (tumor A265). Further, the “ERK1/2 activation ex vivo” value in test [6] (all resistant tumors of the xenograft panel, erlotinib 5 μM, 6 hours) is reported as “failed to inhibit ERK1/2 activation”. In test [6] (cancer cells from pancreatic cancer patient 1, six hours), the “ERK1/2 phosphorylation ex vivo” value is recorded as “dramatically blocked ERK1/2 phosphorylation”. The “phosphorylation of ERK1/2 ex vivo” value in test [6] (cells from resistant tumor A265, erlotinib 5 μM, 6 hours) is on record as “failed to inhibit ERK1/2 phosphorylation”; in test [6] (cells from tumor A198, erlotinib 5 μM, 6 hours), “dramatic inhibition; also recorded: did show inhibition of ERK1/2; also recorded: inhibited ERK1/2 activation”. In addition, the “ERK1/2 activity ex vivo” value in test [6] (tumor cells of pancreatic cancer patient 2 and 3, six hours) was “did not effectively block ERK1/2 activity”.
